Literature values in patent US8759282B2, “Water-soluble films comprising low-viscosity alginates” (Uppsalagruppen Medical AB, priority 2005, dated 2014).
Read-outs that look alike come from different tables or passages of the source.

Key:
[1] = not given; remark: listed apart in the source

SMILES | Solubility in water | Solubility in water (listed as ibuprofen) | pKa [1]
CC(=O)Oc1ccccc1C(=O)O [Substance 2, 2-Acetoxibensoesyra] | 1 g/100 g of water | – | –
CC(C)Cc1ccc(C(C)C(=O)O)cc1 (stereo not drawn) [Substance 3, p-Isobutylhydratropic acid] | slightly soluble in water | only slightly soluble in water | –
CC(=O)Nc1ccc(O)cc1 [Substance 1, N-Acetyl-p-aminophenol] | only slightly soluble in water | – | –
CN1CCC[C@H]1c1cccnc1 [Substance 4, (S)-3-(1-Methyl-2-pyrrolidinyl)pyridine] | liquid miscible with water | – | 8.5
